{"source": "paper PMC3206302", "about": "(The Journal of General Physiology, 2011)", "target": "T1, TRPV3 (Mus musculus, UniProt Q8K424)", "T1 sequence (Q8K424 1-791)": "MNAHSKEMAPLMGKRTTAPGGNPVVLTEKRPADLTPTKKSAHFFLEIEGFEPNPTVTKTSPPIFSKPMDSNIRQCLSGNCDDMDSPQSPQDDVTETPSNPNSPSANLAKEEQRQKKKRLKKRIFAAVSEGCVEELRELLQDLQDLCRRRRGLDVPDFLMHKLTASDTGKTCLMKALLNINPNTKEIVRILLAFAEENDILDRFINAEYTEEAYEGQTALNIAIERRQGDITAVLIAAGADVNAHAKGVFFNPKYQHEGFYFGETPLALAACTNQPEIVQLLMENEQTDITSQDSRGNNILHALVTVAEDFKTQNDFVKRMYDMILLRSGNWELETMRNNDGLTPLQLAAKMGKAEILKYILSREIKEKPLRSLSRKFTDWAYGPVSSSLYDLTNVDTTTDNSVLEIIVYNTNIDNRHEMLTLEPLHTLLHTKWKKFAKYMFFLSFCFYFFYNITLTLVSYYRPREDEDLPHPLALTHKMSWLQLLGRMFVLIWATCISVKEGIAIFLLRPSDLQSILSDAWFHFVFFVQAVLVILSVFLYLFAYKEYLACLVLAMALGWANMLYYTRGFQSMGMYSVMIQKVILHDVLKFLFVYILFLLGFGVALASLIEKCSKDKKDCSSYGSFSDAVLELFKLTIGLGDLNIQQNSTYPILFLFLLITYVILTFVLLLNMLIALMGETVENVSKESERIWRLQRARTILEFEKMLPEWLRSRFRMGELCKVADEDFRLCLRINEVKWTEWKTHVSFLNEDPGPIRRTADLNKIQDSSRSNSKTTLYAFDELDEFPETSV", "experiment": "patch-clamp, reversible potentiation of 2-APB response in inside-out patches", "assay_type": "cell-based", "data": [{"smiles": "CC(C)=C[C@H]1C[C@H](C)[C@]2(CC[C@]3(C)C[C@H]4[C@H](C(=O)C[C@@]4(C)O)/C(C=O)=C\\C[C@H]32)O1", "note": "[ophiobolin A]", "values": [{"measurement": "patch-clamp, reversible potentiation of 2-APB response in inside-out patches", "result": "some CaM inhibitors such as ophiobolin A and W-7 may directly interfere with the gating of TRPV3"}]}]}
